Legend:
Assay in all cases: NCI SRB GI50 screen
Format in all cases: cell-based
786-0 = conditions: Homo sapiens, Renal, 48 hrs exposure, read-out: Growth Inhibition GI50 786-0
Description: (§1) 2-Anilino nicotinyl linked 2-amino benzothiazole conjugates of formula 9-12 were tested against fifty nine human cancer cell lines derived from nine cancer types (leukemia, non-small cell lung cancer, colon cancer, CNS cancer, melanoma, ovarian cancer, renal cancer, prostate cancer and breast cancer) as per NCI protocol. For each compound, dose response curves for individual cell lines were measured at a minimum of five concentrations at 10 fold dilutions. A protocol of 48 hrs continuous drug exposure was used, and a sulforhodamine B (SRB) protein assay was used to estimate cell viability or growth.

A498 = conditions: Homo sapiens, Renal, 48 hrs exposure, read-out: Growth Inhibition GI50 A498
Description: as §1

BT-549 = conditions: Homo sapiens, Breast, 48 hrs exposure, read-out: Growth Inhibition GI50 BT-549
Description: as §1

CAKI-1 = conditions: Homo sapiens, Renal, 48 hrs exposure, read-out: Growth Inhibition GI50 CAKI-1
Description: as §1

HCC-2998 = conditions: Homo sapiens, Colon, 48 hrs exposure, read-out: Growth Inhibition GI50 HCC-2998
Description: as §1

HCT-15 = conditions: Homo sapiens, Colon, 48 hrs exposure, read-out: Growth Inhibition GI50 HCT-15
Description: as §1

HOP-62 = conditions: Homo sapiens, Non-small lung, 48 hrs exposure, read-out: Growth Inhibition GI50 HOP-62
Description: as §1

HOP-92 = conditions: Homo sapiens, Non-small lung, 48 hrs exposure, read-out: Growth Inhibition GI50 HOP-92
Description: as §1

HS 578T = conditions: Homo sapiens, Breast, 48 hrs exposure, read-out: Growth Inhibition GI50 HS 578T
Description: as §1

IGROV1 = conditions: Homo sapiens, IGROV-1; Ovarian, 48 hrs exposure; read-out: Growth Inhibition GI50 IGROV1
Description: as §1

K-562 = conditions: Homo sapiens, K562; Leukemia, 48 hrs exposure; read-out: Growth Inhibition GI50 K-562
Description: as §1

KM12 = conditions: Homo sapiens, Colon, 48 hrs exposure, read-out: Growth Inhibition GI50 KM12
Description: as §1

LOX IMVI = conditions: Homo sapiens, Melanoma, 48 hrs exposure, read-out: Growth Inhibition GI50 LOX IMVI
Description: as §1

M14 = conditions: Homo sapiens, Melanoma, 48 hrs exposure, read-out: Growth Inhibition GI50 M14
Description: as §1

MCF7 = conditions: Homo sapiens, Breast, 48 hrs exposure, read-out: Growth Inhibition GI50 MCF7
Description: as §1

MDA-MB-231/ATCC = conditions: Homo sapiens, Breast, 48 hrs exposure, read-out: Growth Inhibition GI50 MDA-MB-231/ATCC
Description: as §1

MDA-MB-435 = conditions: Homo sapiens, Melanoma, 48 hrs exposure, read-out: Growth Inhibition GI50 MDA-MB-435
Description: as §1

NCI-H322M = conditions: Homo sapiens, Non-small lung, 48 hrs exposure, read-out: Growth Inhibition GI50 NCI-H322M
Description: as §1

NCI-H522 = conditions: Homo sapiens, Non-small lung, 48 hrs exposure, read-out: Growth Inhibition GI50 NCI-H522
Description: as §1

OVCAR-5 = conditions: Homo sapiens, Ovarian, 48 hrs exposure, read-out: Growth Inhibition GI50 OVCAR-5
Description: as §1

OVCAR-8 = conditions: Homo sapiens, Ovarian, 48 hrs exposure, read-out: Growth Inhibition GI50 OVCAR-8
Description: as §1

SF-539 = conditions: Homo sapiens, CNS, 48 hrs exposure, read-out: Growth Inhibition GI50 SF-539
Description: as §1

SK-MEL-28 = conditions: Homo sapiens, Melanoma, 48 hrs exposure, read-out: Growth Inhibition GI50 SK-MEL-28
Description: as §1

SK-OV-3 = conditions: Homo sapiens, Ovarian, 48 hrs exposure, read-out: Growth Inhibition GI50 SK-OV-3
Description: as §1

SN12C = conditions: Homo sapiens, Renal, 48 hrs exposure, read-out: Growth Inhibition GI50 SN12C
Description: as §1

SNB-19 = conditions: Homo sapiens, CNS, 48 hrs exposure, read-out: Growth Inhibition GI50 SNB-19
Description: as §1

SNB-75 = conditions: Homo sapiens, CNS, 48 hrs exposure, read-out: Growth Inhibition GI50 SNB-75
Description: as §1

SR = conditions: Homo sapiens, Leukemia, 48 hrs exposure, read-out: Growth Inhibition GI50 SR
Description: as §1

TK-10 = conditions: Homo sapiens, Renal, 48 hrs exposure, read-out: Growth Inhibition GI50 TK-10
Description: as §1

UACC-257 = conditions: Homo sapiens, Melanoma, 48 hrs exposure, read-out: Growth Inhibition GI50 UACC-257
Description: as §1

UO-31 = conditions: Homo sapiens, Renal, 48 hrs exposure, read-out: Growth Inhibition GI50 UO-31
Description: as §1

Row | Compound | GI50 (786-0) [µM] | GI50 (A498) [µM] | GI50 (BT-549) [µM] | GI50 (CAKI-1) [µM] | GI50 (HCC-2998) [µM] | GI50 (HCT-15) [µM] | GI50 (HOP-62) [µM] | GI50 (HOP-92) [µM] | GI50 (HS 578T) [µM] | GI50 (IGROV1) [µM] | GI50 (K-562) [µM] | GI50 (KM12) [µM] | GI50 (LOX IMVI) [µM] | GI50 (M14) [µM] | GI50 (MCF7) [µM] | GI50 (MDA-MB-231/ATCC) [µM] | GI50 (MDA-MB-435) [µM] | GI50 (NCI-H322M) [µM] | GI50 (NCI-H522) [µM] | GI50 (OVCAR-5) [µM] | also measured
1 | O=C(Nc1nc2ccc(F)cc2s1)c1cccnc1Nc1ccc(Cl)cc1 [Compound 9, N3-(6-fluoro-1,3-benzothiazol-2-yl)-2-(4-chloroanilino)nicotinamide] | 2.78 | 1.92 | 2.05 | 2.89 | 2.75 | 3.32 | 2.7 | 1.69 | 1.99 | 2 | 0.726 | 2.61 | 2.62 | 2.64 | 2.38 | 1.85 | 2.99 | 3.25 | 1.02 | 2.63 | GI50 (OVCAR-8): 2.24 µM; GI50 (SF-539): 2.7 µM; GI50 (SK-MEL-28): 3.51 µM; GI50 (SK-OV-3): 2.23 µM; GI50 (SN12C): 2.3 µM; GI50 (SNB-19): 3.65 µM; GI50 (SNB-75): 2.95 µM; GI50 (SR): 2.28 µM; GI50 (TK-10): 3 µM; GI50 (UACC-257): 0.164 µM; GI50 (UO-31): 1.94 µM
2 | O=C(Nc1nc2ccc(F)cc2s1)c1cccnc1Nc1ccc(Cl)cc1Cl [Compound 10, N3-(6-fluoro-1,3-benzothiazol-2-yl)-2-(2,4-dichloroanilino)nicotinamide] | 3.77 | 2.83 | 3.01 | 1.5 | 3.54 | 3.74 | 3.94 | 1.48 | 3.25 | 1.82 | 1.78 | 2.9 | 4.19 | 3.37 | 3.07 | 3.41 | 3.03 | 3.24 | 1.48 | 4.46 | GI50 (OVCAR-8): 2.78 µM; GI50 (SF-539): 4.02 µM; GI50 (SK-MEL-28): 4.09 µM; GI50 (SK-OV-3): 2.5 µM; GI50 (SN12C): 2.32 µM; GI50 (SNB-19): 3.66 µM; GI50 (SNB-75): 2.55 µM; GI50 (SR): 3.03 µM; GI50 (TK-10): 3.05 µM; GI50 (UACC-257): 0.17 µM; GI50 (UO-31): 1.1 µM
3 | COc1cc(Nc2ncccc2C(=O)Nc2nc3ccc(F)cc3s2)cc(OC)c1OC [Compound 11, N3-(6-fluoro-1,3-benzothiazol-2-yl)-2-(3,4,5-trimethoxyanilino)nicotinamide] | 5.51 | 3.45 | 2.63 | 3.15 | 2.94 | 4.38 | 5.78 | 1.48 | 2.57 | 1.77 | 1.68 | 3.79 | 3.87 | 3.08 | 3.23 | 4.61 | 2.87 | 3.71 | 1.55 | 25.6 | GI50 (OVCAR-8): 3.62 µM; GI50 (SF-539): 3.84 µM; GI50 (SK-MEL-28): 4.33 µM; GI50 (SK-OV-3): 7.4 µM; GI50 (SN12C): 4.73 µM; GI50 (SNB-19): 3.49 µM; GI50 (SNB-75): 4.48 µM; GI50 (SR): 2.97 µM; GI50 (UO-31): 3.37 µM
4 | COc1ccc2nc(NC(=O)c3cccnc3Nc3cc(OC)c(OC)c(OC)c3)sc2c1 [Compound 12, N-3-(6-methoxy-1,3-benzothiazol-2-yl)-2-(3,4,5-trimethoxyanilino) nicotinamide] | 5.6 | 2.19 | 11.6 | 16.4 | 17 | 11.2 | 6.33 | 2.24 | 5.77 | 13.2 | 8.91 | 4.51 | 15.7 | 10.5 | 0.51 | 5.62 | 1.85 | 17.3 | 2.6 | 14.5 | GI50 (OVCAR-8): 6.52 µM; GI50 (SF-539): 2.81 µM; GI50 (SK-MEL-28): 7.88 µM; GI50 (SK-OV-3): 3.72 µM; GI50 (SN12C): 11.7 µM; GI50 (SNB-19): 15 µM; GI50 (SNB-75): 2.89 µM; GI50 (SR): 2.31 µM; GI50 (TK-10): 4.31 µM; GI50 (UACC-257): 8.45 µM; GI50 (UO-31): 9.3 µM

Source: patent publication US9029553B2, “2-anilino nicotinyl linked 2-amino benzothiazole conjugates and process for the preparation thereof” (Council of Scientific & Industrial Research, priority 2011, dated 2015)
